The results in this text go back to ChEMBL document CHEMBL1926648, “Synthesis and biological activity of dihydroimidazole and 3,4-dihydrobenzo[4,5]imidazo[1,2-a][1,3,5]triazins” (2012).

Holding throughout (assay type): functional
Common to all, as to conditions: read-out: IZ

In experiment [1] the test system is Escherichia coli. Kind of experiment: Antibacterial activity against Escherichia coli at 10000 ppm after 24 hrs by agar diffusion method.
For experiment [2], the system named is Micrococcus luteus. Kind of experiment: Antibacterial activity against Micrococcus luteus at 30000 ppm after 24 hrs by agar diffusion method.
Experiment [3] deals with Escherichia coli. Kind of experiment: Antibacterial activity against Escherichia coli at 30000 ppm after 24 hrs by agar diffusion method. In general terms: In agar diffusion tests the substance spreads into inoculated agar from a disc or well.
For experiment [4], the system named is Bacillus subtilis. Kind of experiment: Antibacterial activity against Bacillus subtilis at 30000 ppm after 24 hrs by agar diffusion method.
Experiment [5] has as its system Bacillus subtilis. Kind of experiment: Antibacterial activity against Bacillus subtilis at 10000 ppm after 24 hrs by agar diffusion method.
In experiment [6] the test system is Pseudomonas aeruginosa. Kind of experiment: Antibacterial activity against Pseudomonas aeruginosa at 30000 ppm after 24 hrs by agar diffusion method.
Experiment [7] relates to Micrococcus luteus. Kind of experiment: Antibacterial activity against Micrococcus luteus at 50000 ppm after 24 hrs by agar diffusion method.
In experiment [8] the test system is Bacillus subtilis. Kind of experiment: Antibacterial activity against Bacillus subtilis at 50000 ppm after 24 hrs by agar diffusion method.
In experiment [9] the test system is Bacillus cereus. Kind of experiment: Antibacterial activity against Bacillus cereus at 50000 ppm after 24 hrs by agar diffusion method.
The subject of experiment [10] is Bacillus cereus. Kind of experiment: Antibacterial activity against Bacillus cereus at 30000 ppm after 24 hrs by agar diffusion method.
In experiment [11] the test system is Pseudomonas aeruginosa. Kind of experiment: Antibacterial activity against Pseudomonas aeruginosa at 50000 ppm after 24 hrs by agar diffusion method.
For experiment [12], the system named is Micrococcus luteus. Kind of experiment: Antibacterial activity against Micrococcus luteus at 10000 ppm after 24 hrs by agar diffusion method.
In experiment [13] the test system is Staphylococcus aureus. Kind of experiment: Antibacterial activity against Staphylococcus aureus at 50000 ppm after 24 hrs by agar diffusion method.
In experiment [14] the test system is Kocuria rosea. Kind of experiment: Antibacterial activity against Micrococcus roseus at 50000 ppm after 24 hrs by agar diffusion method.
Experiment [15] has as its system Escherichia coli. Kind of experiment: Antibacterial activity against Escherichia coli at 50000 ppm after 24 hrs by agar diffusion method.
The subject of experiment [16] is Staphylococcus aureus. Kind of experiment: Antibacterial activity against Staphylococcus aureus at 30000 ppm after 24 hrs by agar diffusion method.
Experiment [17] has as its system Kocuria rosea. Kind of experiment: Antibacterial activity against Micrococcus roseus at 30000 ppm after 24 hrs by agar diffusion method.
Experiment [18] relates to Bacillus cereus. Kind of experiment: Antibacterial activity against Bacillus cereus at 10000 ppm after 24 hrs by agar diffusion method.
Experiment [19] relates to Pseudomonas aeruginosa. Kind of experiment: Antibacterial activity against Pseudomonas aeruginosa at 10000 ppm after 24 hrs by agar diffusion method.
For experiment [20], the system named is Kocuria rosea. Kind of experiment: Antibacterial activity against Micrococcus roseus at 10000 ppm after 24 hrs by agar diffusion method.
Experiment [21] concerns Staphylococcus aureus. Kind of experiment: Antibacterial activity against Staphylococcus aureus at 10000 ppm after 24 hrs by agar diffusion method.

Turning to `NC1=NC2(CCCCC2)n2c(nc3ccccc32)N1`, the zone of inhibition at 10000 ppm in the experiment with Escherichia coli [1] is 12 mm; in the experiment with Bacillus subtilis [5], 7 mm; with Micrococcus luteus [12] it was 7 mm. Besides, the zone of inhibition at 30000 ppm was 7 mm in the experiment on Micrococcus luteus [2]; 15 mm with Escherichia coli [3]; 11 mm in the experiment on Bacillus subtilis [4]; 4 mm in the experiment with Pseudomonas aeruginosa [6]; 4 mm in the experiment on Bacillus cereus [10]. The zone of inhibition at 50000 ppm in the experiment with Micrococcus luteus [7] was determined as 12 mm; with Bacillus subtilis [8], 13 mm; in the experiment with Bacillus cereus [9], 9 mm; in the experiment with Pseudomonas aeruginosa [11], 5 mm; with Staphylococcus aureus [13], 5 mm; in the experiment with Kocuria rosea [14], 5 mm. For the same compound, the zone of inhibition at 50000 ppm in the experiment with Escherichia coli [15] was 18 mm.
For `NC1=NC2(CCCC2)n2c(nc3ccccc32)N1`, the zone of inhibition at 10000 ppm was 12 mm with Escherichia coli [1], 9 mm in the experiment with Bacillus subtilis [5] and 7 mm in the experiment on Micrococcus luteus [12]. For the same compound, the zone of inhibition at 30000 ppm was determined as 4 mm in the experiment with Staphylococcus aureus [16]; 7 mm in the experiment on Micrococcus luteus [2]; 17 mm with Escherichia coli [3]; 12 mm in the experiment with Bacillus subtilis [4]; 3 mm in the experiment with Kocuria rosea [17]; 5 mm with Bacillus cereus [10]. Moreover, the zone of inhibition at 50000 ppm stood at 12 mm in the experiment with Micrococcus luteus [7]; 15 mm with Bacillus subtilis [8]; 9 mm with Bacillus cereus [9]; 5 mm with Pseudomonas aeruginosa [11]; 6 mm in the experiment with Staphylococcus aureus [13]; 8 mm in the experiment with Kocuria rosea [14]. For the same compound, the zone of inhibition at 50000 ppm with Escherichia coli [15] stood at 20 mm.
Turning to `c1ccc(-c2c[nH]/c(=N/c3nc4ccccc4[nH]3)[nH]2)cc1`, the zone of inhibition at 10000 ppm in the experiment on Escherichia coli [1] was determined as 4 mm; in the experiment with Bacillus cereus [18], 6 mm; in the experiment with Pseudomonas aeruginosa [19] it was 4 mm; in the experiment with Bacillus subtilis [5], 9 mm; with Kocuria rosea [20], 3 mm. Moreover, the zone of inhibition at 30000 ppm in the experiment with Staphylococcus aureus [16] is 5 mm; with Escherichia coli [3], 6 mm; with Bacillus subtilis [4] it was 11 mm; with Pseudomonas aeruginosa [6], 6 mm; in the experiment with Kocuria rosea [17], 8 mm; with Bacillus cereus [10] it was 8 mm. Besides, the zone of inhibition at 50000 ppm was 3 mm in the experiment with Micrococcus luteus [7]; 14 mm in the experiment on Bacillus subtilis [8]; 9 mm in the experiment with Bacillus cereus [9]; 11 mm in the experiment on Pseudomonas aeruginosa [11]; 9 mm in the experiment with Staphylococcus aureus [13]; 10 mm in the experiment on Kocuria rosea [14]. Also, the zone of inhibition at 50000 ppm with Escherichia coli [15] is 8 mm.
In the case of `Clc1c[nH]/c(=N/c2nc3ccccc3[nH]2)[nH]1`, the zone of inhibition at 10000 ppm came to 9 mm in the experiment with Escherichia coli [1] and 6 mm with Bacillus subtilis [5]. The zone of inhibition at 30000 ppm was determined as 5 mm in the experiment with Staphylococcus aureus [16], 13 mm in the experiment on Escherichia coli [3], 10 mm with Bacillus subtilis [4] and 3 mm with Kocuria rosea [17]. In addition, the zone of inhibition at 50000 ppm was 4 mm with Micrococcus luteus [7]; 14 mm with Bacillus subtilis [8]; 6 mm in the experiment with Bacillus cereus [9]; 2 mm in the experiment on Pseudomonas aeruginosa [11]; 9 mm with Staphylococcus aureus [13]; 8 mm with Kocuria rosea [14]. For the same compound, the zone of inhibition at 50000 ppm in the experiment on Escherichia coli [15] is 18 mm.
For the compound `Cc1c[nH]/c(=N/c2nc3ccccc3[nH]2)[nH]1`, the zone of inhibition at 10000 ppm worked out at 1 mm in the experiment on Escherichia coli [1]; 6 mm in the experiment with Bacillus cereus [18]; 10 mm with Bacillus subtilis [5]; 6 mm with Micrococcus luteus [12]; 5 mm with Kocuria rosea [20]. For the same compound, the zone of inhibition at 30000 ppm with Staphylococcus aureus [16] amounted to 3 mm; in the experiment on Micrococcus luteus [2], 7 mm; in the experiment with Escherichia coli [3], 4 mm; with Bacillus subtilis [4], 13 mm; in the experiment on Pseudomonas aeruginosa [6] it was 4 mm; in the experiment on Kocuria rosea [17], 7 mm. Further, the zone of inhibition at 30000 ppm in the experiment with Bacillus cereus [10] came out at 9 mm. Also, the zone of inhibition at 50000 ppm in the experiment on Micrococcus luteus [7] turned out to be 8 mm; in the experiment on Bacillus subtilis [8], 15 mm; in the experiment with Bacillus cereus [9] it was 12 mm; with Pseudomonas aeruginosa [11], 7 mm; in the experiment on Staphylococcus aureus [13] it was 6 mm; in the experiment with Kocuria rosea [14] it was 9 mm. Besides, the zone of inhibition at 50000 ppm in the experiment with Escherichia coli [15] worked out at 8 mm.
With `Oc1c[nH]/c(=N/c2nc3ccccc3[nH]2)[nH]1`, the results for the zone of inhibition at 10000 ppm in the experiment with Escherichia coli [1], with Pseudomonas aeruginosa [19] and in the experiment on Staphylococcus aureus [21] were 6 mm, 5 mm and 2 mm, respectively. Besides, the zone of inhibition at 30000 ppm came out at 7 mm in the experiment with Staphylococcus aureus [16]; 5 mm in the experiment with Micrococcus luteus [2]; 8 mm with Escherichia coli [3]; 8 mm in the experiment on Pseudomonas aeruginosa [6]; 6 mm with Kocuria rosea [17]; 5 mm with Bacillus cereus [10]. For the same compound, the zone of inhibition at 50000 ppm with Micrococcus luteus [7] amounted to 9 mm; in the experiment with Bacillus subtilis [8] it was 7 mm; with Bacillus cereus [9], 10 mm; in the experiment on Pseudomonas aeruginosa [11], 11 mm; in the experiment with Staphylococcus aureus [13], 13 mm; with Kocuria rosea [14], 8 mm. Further, in the experiment with Escherichia coli [15], the zone of inhibition at 50000 ppm turned out to be 13 mm.
Consider `Nc1c[nH]/c(=N/c2nc3ccccc3[nH]2)[nH]1`, for which the zone of inhibition at 10000 ppm amounted to 3 mm in the experiment on Escherichia coli [1], 4 mm in the experiment with Pseudomonas aeruginosa [19], 4 mm in the experiment with Staphylococcus aureus [21] and 6 mm in the experiment with Kocuria rosea [20]. For the same compound, the zone of inhibition at 30000 ppm in the experiment on Staphylococcus aureus [16] was found to be 9 mm; in the experiment with Micrococcus luteus [2], 4 mm; in the experiment on Escherichia coli [3] it was 8 mm; in the experiment on Pseudomonas aeruginosa [6], 7 mm; with Kocuria rosea [17], 8 mm. The zone of inhibition at 50000 ppm was found to be 8 mm with Micrococcus luteus [7]; 6 mm in the experiment on Bacillus subtilis [8]; 4 mm in the experiment with Bacillus cereus [9]; 9 mm in the experiment on Pseudomonas aeruginosa [11]; 15 mm in the experiment with Staphylococcus aureus [13]; 12 mm with Kocuria rosea [14]. Further, in the experiment on Escherichia coli [15], the zone of inhibition at 50000 ppm stood at 14 mm.
As for `CC1=NN(c2ccccc2)C2(C1)NC(N)=Nc1nc3ccccc3n12` (configuration not stated), the zone of inhibition at 10000 ppm in the experiment on Escherichia coli [1] worked out at 8 mm; in the experiment with Micrococcus luteus [12], 5 mm. Besides, the zone of inhibition at 30000 ppm came to 9 mm in the experiment on Micrococcus luteus [2]; 13 mm in the experiment with Escherichia coli [3]; 3 mm in the experiment with Bacillus subtilis [4]; 4 mm in the experiment on Pseudomonas aeruginosa [6]; 3 mm with Kocuria rosea [17]. The zone of inhibition at 50000 ppm in the experiment on Micrococcus luteus [7] turned out to be 11 mm; with Bacillus subtilis [8], 9 mm; in the experiment with Bacillus cereus [9], 4 mm; with Pseudomonas aeruginosa [11], 6 mm; in the experiment with Staphylococcus aureus [13], 4 mm; in the experiment with Kocuria rosea [14], 8 mm. Also, in the experiment with Escherichia coli [15], the zone of inhibition at 50000 ppm worked out at 16 mm.
For `NC1=Nc2nc3ccccc3n2C2(NC(=O)CC(=O)N2)N1`, the zone of inhibition at 10000 ppm in the experiment with Escherichia coli [1] amounted to 8 mm; in the experiment on Bacillus cereus [18] it was 1 mm; in the experiment with Pseudomonas aeruginosa [19] it was 2 mm; in the experiment on Bacillus subtilis [5], 6 mm; in the experiment on Kocuria rosea [20], 1 mm. Also, the zone of inhibition at 30000 ppm in the experiment on Staphylococcus aureus [16] was determined as 5 mm; in the experiment on Micrococcus luteus [2], 4 mm; with Escherichia coli [3], 11 mm; in the experiment on Bacillus subtilis [4], 10 mm; with Pseudomonas aeruginosa [6], 6 mm; in the experiment with Kocuria rosea [17] it was 4 mm. The zone of inhibition at 30000 ppm in the experiment with Bacillus cereus [10] is 4 mm. For the same compound, the zone of inhibition at 50000 ppm in the experiment on Micrococcus luteus [7] was determined as 6 mm; in the experiment with Bacillus subtilis [8], 14 mm; in the experiment on Bacillus cereus [9], 7 mm; in the experiment on Pseudomonas aeruginosa [11], 9 mm; in the experiment on Staphylococcus aureus [13], 8 mm; in the experiment on Kocuria rosea [14] it was 7 mm. The zone of inhibition at 50000 ppm in the experiment on Escherichia coli [15] was determined as 15 mm.
`CC1(C)[C@@H]2CC[C@@]1(C)C1(C2)NC(N)=Nc2nc3ccccc3n21` (some centres not stated): the results for the zone of inhibition at 10000 ppm with Escherichia coli [1] and in the experiment with Bacillus subtilis [5] were 4 mm and 3 mm, respectively. Moreover, the zone of inhibition at 30000 ppm in the experiment with Staphylococcus aureus [16] was 3 mm; with Escherichia coli [3], 9 mm; in the experiment with Bacillus subtilis [4] it was 5 mm; with Kocuria rosea [17] it was 2 mm. Besides, the zone of inhibition at 50000 ppm with Bacillus subtilis [8] is 6 mm; in the experiment with Bacillus cereus [9], 4 mm; with Staphylococcus aureus [13], 8 mm; with Kocuria rosea [14], 5 mm; in the experiment on Escherichia coli [15], 12 mm.
